Source: the RepoRT retention time repository (doi:10.1016/j.talanta.2015.03.003)

Experiment: RP, Merck Supelco Ascentis Express C18, 150 × 2.1 mm, 2.7 µm, 55 °C, 0.26 mL/min, estimated dead time 1.3 min; A: 60% water + 40% acetonitrile + 0.1% formic acid + 10 mM ammonium formate; B: 10% acetonitrile + 90% isopropanol + 0.1% formic acid + 10 mM ammonium formate; gradient (min/%B) 0/32 1.5/32 4/45 5/52 8/58 11/66 14/70 18/75 21/97 25/97 25.1/32 30/32
Conditions: stereoisomer not certain
With `CCCCCCC=CCCCCCCCC(=O)OCC(COC(=O)CCCCCCCC=CCCCCCC)OC(=O)CCCCCCCC=CCCCCCC` (centres undefined) [glyceryltripalmitoleate] the LC retention time was 24.2 min. `CCCCCCCCC=CCCCCCCCCCCCC(=O)O` [erucic acid] showed an LC retention time of 14 min. Compound `CC(CCC(=O)O)C1CCC2C3CC(O)C4CC(O)CCC4(C)C3CCC12C` (centres undefined) [HDCA] has an LC retention time of 2.1 min. With `CCCCCCCCCCCCCCCC(=O)OCC(COC(=O)CCCCCCCCCCCCCCC)OC(=O)CCCCCCCCCCCCCCC` [glyceryltripalmitate] the LC retention time was 24.2 min. In the case of `CCCCCCC=CCCCCCCCC(=O)O` [palmitoleic_acid], the LC retention time is reported as 8.4 min. `CCCCCCCCCCCCCCCCCCCC(=O)O` [arachidic acid] showed an LC retention time of 13.9 min. Compound `CCCCCCCCC=CCCCCCCCC(=O)OCC(COP(=O)(O)OCC(O)CO)OC(=O)CCCCCCCC=CCCCCCCCC` (centres undefined) [1,2dioleoyl_GLP_Na] has an LC retention time of 15.7 min. `CC(C)C(C)C=CC(C)C1CCC2C3=CC=C4CC(O)CCC4(C)C3CCC21C` (centres undefined) [ergosterol] gave an LC retention time of 14.2 min. For `CCCCCCCCC=CCCCCCCCC(=O)OCC(COC(=O)CCCCCCCC=CCCCCCCCC)OC(=O)CCCCCCCC=CCCCCCCCC` (centres undefined) [glyceryltrioleate], the LC retention time was 24.2 min. `CCCCCCCCCCCCCCCC(=O)OCC(O)COP(=O)([O-])OCC[N+](C)(C)C` (centres undefined) [1-palmitoyl-sn-glycero-3PC] showed an LC retention time of 5.9 min. In the case of `CCC(CCC(C)C1CCC2C3CC=C4CC(O)CCC4(C)C3CCC12C)C(C)C` (centres undefined) [BSitosterol], the LC retention time is reported as 16.6 min. Compound `CCCCCCCCCCCCCCCCCCCCCCCC(=O)O` [lignoceric acid] has an LC retention time of 17.8 min. `CCCCCCCCCCCCCC(=O)O` [MirysticAcid] showed an LC retention time of 8 min. Work on `CCC=CCC=CCC=CCC=CCC=CCC=CCCC(=O)O` [DocosahexaenoicAcid] yielded an LC retention time of 8.4 min. In the case of `CC(CCC(=O)NCC(=O)O)C1CCC2C3CCC4CC(O)CCC4(C)C3CC(O)C12C` (centres undefined) [G-DCA], the LC retention time is reported as 2.1 min. Work on `CC(C)C(C)CCC(C)C1CCC2C3CC=C4CC(O)CCC4(C)C3CCC12C` (centres undefined) [campesterol] yielded an LC retention time of 16 min. For `CCCCC/C=C\C/C=C\CCCCCCCC(=O)O` [linoleic acid], the LC retention time was 8.9 min. With `CCCCCCCCCCCCCC=CC(O)C(N)CO` [D-sphingosine] the LC retention time was 4.3 min. Compound `CCCCCCCCCCCCCCCCCC(=O)O` [StearicAcid] has an LC retention time of 12 min. Work on `CC(CCC(=O)O)C1CCC2C3CCC4CC(O)CCC4(C)C3CC(O)C12C` (centres undefined) [DCA] yielded an LC retention time of 3.5 min. For `NC(COP(=O)(O)O)C(=O)O` (centres undefined) [PS], the LC retention time was 14.9 min. In the case of `CC(CCC(=O)O)C1CCC2C3C(O)C(O)C4CC(O)CCC4(C)C3CCC12C` (centres undefined) [MCA], the LC retention time is reported as 1.9 min. In the case of `CC(=O)C1CCC2C3CCC4=CC(=O)CCC4(C)C3CCC12C` (centres undefined) [Progesterone], the LC retention time is reported as 2.7 min. Work on `CCCCCCCCC=CCCCCCCCC(=O)OCC(COP(=O)([O-])OCC[N+](C)(C)C)OC(=O)CCCCCCCC=CCCCCCCCC` (centres undefined) [1,2dioleoyl_PC] yielded an LC retention time of 17 min. In the case of `CCCCCCCCC=CCCCCCCCC(=O)OC(CC(=O)[O-])C[N+](C)(C)C` (centres undefined) [Oleoyl-CAR], the LC retention time is reported as 5.8 min. With `CCC(CCC(C)C1CCC2C3CC=C4CC(OC5OC(CO)C(O)C(O)C5O)CCC4(C)C3CCC12C)C(C)C` (centres undefined) [betaSitosterolglucoside] the LC retention time was 12.6 min. Compound `CCCCCCCCCCCCCCCCC(=O)O` [margaric acid] has an LC retention time of 11 min. With `CCCCCCC=CCCCCCCCCCC(=O)O` [cis-vaccenic_acid] the LC retention time was 10.3 min. Work on `CCCCCCCCC=CCCCCCCCC(=O)OCC(O)CO` (stereo not drawn) [1oleoyl_rac_GL] yielded an LC retention time of 8.8 min. With `CC(C)CCCC(C)C1CCC2C3CCC4CCCCC4(C)C3CCC12C` (centres undefined) [5alfa-colestane] the LC retention time was 9.2 min. `CC(C)=CCCC(C)C1CCC2C3CC=C4CC(O)CCC4(C)C3CCC12C` (centres undefined) [desmosterol] gave an LC retention time of 13.8 min. For `CCCCC=CCCCCCCCC(=O)O` [MiristoleicAcid], the LC retention time was 6.6 min. In the case of `CC(CCC(=O)NCCS(=O)(=O)O)C1CCC2C3CCC4CC(O)CCC4(C)C3CC(O)C12C` (centres undefined) [T-DCA], the LC retention time is reported as 1.6 min. `CC(CCC(=O)O)C1CCC2C3C(O)CC4CC(O)CCC4(C)C3CC(O)C12C` (centres undefined) [CA] showed an LC retention time of 2.2 min. With `CCCCCCCCCCCCCC=CC(O)C(CO)NC(=O)CCCCCCCCCCCCCCCCC` (centres undefined) [CER_893] the LC retention time was 19.4 min. In the case of `CCCCCCCCC=CCCCCCCCC(=O)OCC(COP(=O)(O)OCCN)OC(=O)CCCCCCCC=CCCCCCCCC` (centres undefined) [1,2dioleoyl_PE], the LC retention time is reported as 17.4 min. With `CC1CCC2(CO)CCC3(C)C(=CCC4C5(C)CCC(O)C(C)(C)C5CCC43C)C2C1C` (centres undefined) [uvaol] the LC retention time was 7.6 min. `CCCCCC=CCC=CCCCCCCCC(=O)OCC(O)CO` (racemic) [1linoleoyl-rac-GL] gave an LC retention time of 7.6 min. Work on `CC(CCC(=O)NCC(=O)O)C1CCC2C3C(O)CC4CC(O)CCC4(C)C3CC(O)C12C` (centres undefined) [G-CA] yielded an LC retention time of 1.6 min. For `CCCCCCCCCCCCCCCC(=O)OC(CC(=O)[O-])C[N+](C)(C)C` (centres undefined) [C16-CAR], the LC retention time was 5.4 min. For `CCCCCCCCC=CCCCCCCCC(=O)O` [oleic_acid], the LC retention time was 10.3 min. Work on `C=C(C)C1CCC2(C)CCC3(C)C(CCC4C5(C)CCC(O)C(C)(C)C5CCC43C)C12` (centres undefined) [lupeol] yielded an LC retention time of 15.2 min. Compound `CC(C)=CCCC(C)C1CCC2(C)C3=C(CCC12C)C1(C)CCC(O)C(C)(C)C1CC3` (centres undefined) [lanosterol] has an LC retention time of 15 min. Work on `CCC(C=CC(C)C1CCC2C3CC=C4CC(O)CCC4(C)C3CCC12C)C(C)C` (centres undefined) [stigmasterol] yielded an LC retention time of 16 min. For `CCC=CCC=CCC=CCCCCCCCC(=O)O` [linolenic acid], the LC retention time was 7.8 min. In the case of `CCCCCCCCCCCCCCCCCC(=O)OCC(COC(=O)CCCCCCCCCCCCCCCCC)OC(=O)CCCCCCCCCCCCCCCCC` [glyceryltristearate], the LC retention time is reported as 24.9 min. In the case of `CCCCCCC=CCCCCCCCC(=O)OCC(O)CO` (racemic) [1monopalmitoleoyl-rac-GL], the LC retention time is reported as 7 min. `CC(CCC(=O)O)C1CCC2C3CCC4CC(O)CCC4(C)C3CCC12C` (centres undefined) [LCA] gave an LC retention time of 5.6 min. Compound `CCCCCC=CCC=CCCCCCCCC(=O)OCC(COP(=O)(O)OCC[N+](C)(C)C)OC(=O)CCCCCCCC=CCC=CCCCCC` (centres undefined) [1,2dilinoleoyl_PC] has an LC retention time of 14.7 min. `CC(C)CCCC(C)C1CCC2C3CC=C4CC(O)CCC4(C)C3CCC12C` (centres undefined) [CHOLESTEROL] gave an LC retention time of 15.3 min. For `CC(CCC(=O)NCC(=O)O)C1CCC2C3CCC4CC(O)CCC4(C)C3CCC12C` (centres undefined) [G-LCA], the LC retention time was 2.9 min. Work on `CCCCCCCCCCCCCCCCCCCCCC(=O)O` [BehenicAcid] yielded an LC retention time of 15.8 min. In the case of `CC(C)C(C)C=CC(C)C1CCC2C3CC=C4CC(O)CCC4(C)C3CCC12C` (centres undefined) [brassicasterol], the LC retention time is reported as 15.1 min. For `CC(C)CCCC(C)C1CCC2C3CC4OC45CC(O)CCC5(C)C3CCC12C` (centres undefined) [Chol_Epoxide], the LC retention time was 12.8 min. `CC(C)CCCC(C)C1CCC2C3CCC4CC(O)CCC4(C)C3CCC12C` (centres undefined) [Cholestanol] showed an LC retention time of 11.3 min. Compound `CCCCCC=CCC=CCCCCCCCC(=O)OCC(COC(=O)CCCCCCCC=CCC=CCCCCC)OC(=O)CCCCCCCC=CCC=CCCCCC` (centres undefined) [Glyceryltrilinoleate] has an LC retention time of 23.6 min. With `CCCCCCCCCCCCCCCC(=O)O` [palmitic_acid] the LC retention time was 9.9 min. With `NC(CF)(C(=O)O)C(O)CCc1ccccc1` (centres undefined) [T-LCA] the LC retention time was 2 min. For `CCCCCCCC/C=C\CCCCCCCCCC(=O)O` [cis-11-eicosenoic acid], the LC retention time was 12.2 min.
